{
  "source": "patent US10160748B2",
  "about": "(AbbVie Inc., priority 2015, dated 2018)",
  "data": [
    {"biological_target": "TNFα trimer (Homo sapiens, UniProt P01375)", "sequence (P01375 77-233 limits assumed)": "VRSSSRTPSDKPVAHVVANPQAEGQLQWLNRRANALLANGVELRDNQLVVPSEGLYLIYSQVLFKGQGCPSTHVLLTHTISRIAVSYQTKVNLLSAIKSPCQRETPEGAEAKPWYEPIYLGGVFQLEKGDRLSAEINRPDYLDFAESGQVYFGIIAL", "test": "TNFα FP Competitive Binding Assay", "conditions": "FP binding assay; 20 nM TNFα trimer, 1 nM OregonGreen488 probe; read-out: TNF IC50", "how_it_was_run": "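Compounds in 12-point 1:3 series, final top 100 μM (2.0% DMSO) or 338 μM (3.4% DMSO), displace 1 nM fluorescent probe from 20 nM TNFα trimer. After 18-24 h incubation plus 1 h rt equilibration, background-subtracted polarization measured and curves fitted with variable slope.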", "units": {"IC50": "nM"}, "values": [
      {"smiles": "C[C@@H]1CN(c2ncc(-c3cc4c(cc3C#N)c(=O)n(C)n4Cc3ccccc3OC(F)F)cn2)CCN1C(=O)CO", "note": "[Example 23.2]", "IC50": "1000 to 10000"},
      {"smiles": "C[C@@H]1CN(c2ncc(-c3ccc4c(=O)n(C)n(Cc5ccccc5OC(F)F)c4c3C#N)cn2)CCN1C(=O)CO", "note": "[Example 23.3]", "IC50": "< 1000"},
      {"smiles": "Cc1ccc(OC(F)F)c(Cn2c3cc(-c4cnc(N5CCN(S(C)(=O)=O)[C@H](C)C5)nc4)ccc3c(=O)n2C)c1", "note": "[Example 24, (R)-1-(2-(Difluoromethoxy)-5-methylbenzyl)-2-methyl-6-(2-(3-methyl-4-(methylsulfonyl)piperazin-1-yl)pyrimidin-5-yl)-1H-indazol-3(2H)-one]", "IC50": "< 1000"},
      {"smiles": "C[C@@H]1CN(c2ncc(-c3ccc4c(=O)n(C)n(Cc5cc(CC#N)ccc5OC(F)F)c4c3)cn2)CCN1C(=O)CO", "note": "[Example 24.1]", "IC50": "< 1000"},
      {"smiles": "Cc1cccc(C(C)n2c3cc(-c4cnc(N5CCN(C(=O)CO)[C@H](C)C5)nc4)ccc3c(=O)n2C)n1", "note": "(stereo partly shown) [Example 24.2]", "IC50": "1000 to 10000"},
      {"smiles": "CCC(c1cccc(C)c1)n1c2cc(-c3cnc(N4CCN(C(=O)CO)[C@H](C)C4)nc3)ccc2c(=O)n1C", "note": "(stereo partly shown) [Example 24.3]", "IC50": "< 1000"},
      {"smiles": "C[C@@H]1CN(c2ncc(-c3ccc4c(=O)n(C(F)F)n(Cc5ccccc5OC(F)F)c4c3)cn2)CCN1C(=O)CO", "note": "[Example 24.4]", "IC50": "< 1000"},
      {"smiles": "C[C@@H]1CN(c2ncc(-c3ccc4c(=O)n(C)n(Cc5ccccc5Cl)c4c3F)cn2)CCN1C(=O)CO", "note": "[Example 24.5]", "IC50": "< 1000"},
      {"smiles": "C[C@@H]1CN(c2ncc(-c3ccc4c(=O)n(C)n(Cc5ccccc5OC(F)F)c4c3F)cn2)CCN1C(=O)CO", "note": "[Example 24.6]", "IC50": "< 1000"},
      {"smiles": "CC(c1cc(F)ccc1F)n1c2cc(-c3cnc(N4CCN(C(=O)CO)[C@H](C)C4)nc3)ccc2c(=O)n1C", "note": "(stereo partly shown) [Example 24.7]", "IC50": "< 1000"},
      {"smiles": "C[C@@H]1CN(c2ncc(-c3ccc4c(=O)n(C)n(Cc5ccccc5Cl)c4c3)cn2)CCN1C(=O)CO", "note": "[Example 24.8]", "IC50": "< 1000"},
      {"smiles": "COc1c(-c2cnc(N3CCN(C(=O)CO)[C@H](C)C3)nc2)ccc2c(=O)n(C)n(Cc3ccccc3Cl)c12", "note": "[Example 24.9]", "IC50": "< 1000"},
      {"smiles": "Cc1ccnc(C(C)n2c3cc(-c4cnc(N5CCN(C(=O)CO)[C@H](C)C5)nc4)ccc3c(=O)n2C)c1", "note": "(stereo partly shown) [Example 24.10]", "IC50": "1000 to 10000"},
      {"smiles": "C[C@@H]1CN(c2ncc(-c3nc4c(cc3F)c(=O)n(C)n4Cc3ccccc3OC(F)F)cn2)CCN1C(=O)CO", "note": "[Example 24.11]", "IC50": "< 1000"},
      {"smiles": "Cc1c(-c2cnc(N3CCN(C(=O)CO)[C@H](C)C3)nc2)ccc2c(=O)n(C)n(Cc3ccccc3OC(F)F)c12", "note": "[Example 24.12]", "IC50": "< 1000"},
      {"smiles": "Cc1c(-c2cnc(N3CCN(C(=O)CO)[C@H](C)C3)nc2)ccc2c(=O)n(C)n(Cc3ccccc3Cl)c12", "note": "[Example 24.13]", "IC50": "< 1000"},
      {"smiles": "Cc1ccc(OC(F)F)c(Cn2c3cc(-c4cnc(N5CCN(C(=O)CC#N)[C@@H](C)C5)nc4)ccc3c(=O)n2C)c1", "note": "[Example 25.1]", "IC50": "< 1000"},
      {"smiles": "Cc1ccc(OC(F)F)c(Cn2c3c(F)c(-c4cnc(C(C)(C)O)nc4)ccc3c(=O)n2C)c1", "note": "[Example 26.1]", "IC50": "1000 to 10000"},
      {"smiles": "Cc1ccc(OC(F)F)c(Cn2c3cc(-c4cnc(C(C)(C)O)nc4)ccc3c(=O)n2C(F)F)c1", "note": "[Example 26.2]", "IC50": "1000 to 10000"},
      {"smiles": "COC(=O)NCc1ccc(OC(F)F)c(Cn2c3cc(-c4cnc(C(C)(C)O)nc4)ccc3c(=O)n2C)c1", "note": "[Example 26.3]", "IC50": "1000 to 10000"},
      {"smiles": "Cn1c(=O)c2cc(F)c(-c3cnc(C(C)(C)O)nc3)cc2n1Cc1cc(Cn2cncn2)ccc1OC(F)F", "note": "[Example 26.4]", "IC50": "< 1000"},
      {"smiles": "Cn1c(=O)c2cc(F)c(-c3cnc(C(C)(C)O)nc3)cc2n1Cc1cc(Cn2cnnc2)ccc1OC(F)F", "note": "[Example 26.5]", "IC50": "1000 to 10000"},
      {"smiles": "CC(=O)N1CC(Cc2ccc(OC(F)F)c(Cn3c4cc(-c5cnc(C(C)(C)O)nc5)c(F)cc4c(=O)n3C)c2)C1", "note": "[Example 26.6]", "IC50": "1000 to 10000"},
      {"smiles": "Cc1ccc(OC(F)F)c(Cn2c3nc(-c4cnc(C(C)(C)O)nc4)c(F)cc3c(=O)n2C)c1", "note": "[Example 26.7]", "IC50": "1000 to 10000"},
      {"smiles": "Cn1c(=O)c2ccc(-c3cnc(C(C)(C)O)nc3)cc2n1Cc1cc(CC#N)ccc1OC(F)F", "note": "[Example 26.8]", "IC50": "1000 to 10000"},
      {"smiles": "CC(=O)NCc1ccc(OC(F)F)c(Cn2c3cc(-c4cnc(N5CCN(C(C)=O)[C@H](C)C5)nc4)ccc3c(=O)n2C)c1", "note": "[Example 27.1]", "IC50": "1000 to 10000"},
      {"smiles": "COC(=O)NCc1ccc(OC(F)F)c(Cn2c3cc(-c4cnc(N5CCN(C(C)=O)[C@H](C)C5)nc4)ccc3c(=O)n2C)c1", "note": "[Example 27.2]", "IC50": "< 1000"},
      {"smiles": "CC(=O)N1CCN(c2ncc(-c3ccc4c(=O)n(C)n(Cc5cc(CC#N)ccc5OC(F)F)c4c3)cn2)C[C@H]1C", "note": "[Example 27.3]", "IC50": "< 1000"},
      {"smiles": "CC(=O)N1CCN(c2ncc(-c3ccc4c(=O)n(C)n(Cc5cc(CC(C)C#N)ccc5OC(F)F)c4c3)cn2)C[C@H]1C", "note": "(stereo partly shown) [Example 27.4]", "IC50": "1000 to 10000"},
      {"smiles": "CC(=O)N1CCN(c2ncc(-c3ccc4c(=O)n(C)n(Cc5c[nH]cc5C(F)(F)F)c4c3)cn2)C[C@H]1C", "note": "[Example 27.5]", "IC50": "< 1000"},
      {"smiles": "CC(=O)N1CCN(c2ncc(-c3ccc4c(=O)n(Cc5ccncc5)n(Cc5ccccc5OC(F)F)c4c3)cn2)C[C@H]1C", "note": "[Example 27.6]", "IC50": "1000 to 10000"},
      {"smiles": "CC(=O)N1CCN(c2ncc(-c3ccc4c(=O)n(Cc5ccncc5)n(Cc5ccccc5Cl)c4c3)cn2)C[C@H]1C", "note": "[Example 27.7]", "IC50": "1000 to 10000"},
      {"smiles": "CC(c1c(F)cccc1F)n1c2cc(-c3cnc(N4CCN(C(=O)CO)[C@H](C)C4)nc3)ccc2c(=O)n1C", "note": "(stereo partly drawn) [Example 28.1, 1-(1-(2,6-Difluorophenyl)ethyl)-6-(2-((R)-4-(2-hydroxyacetyl)-3-methylpiperazin-1-yl)pyrimidin-5-yl)-2-methyl-1H-indazol-3(2H)-one]", "IC50": "< 1000"},
      {"smiles": "CC(c1ccccc1)n1c2cc(-c3cnc(N4CCN(C(=O)CO)[C@H](C)C4)nc3)ccc2c(=O)n1C", "note": "(stereo partly shown) [Example 28.2]", "IC50": "< 1000"},
      {"smiles": "CC(c1ccccc1F)n1c2cc(-c3cnc(N4CCN(C(=O)CO)[C@H](C)C4)nc3)ccc2c(=O)n1C", "note": "(stereo partly shown) [Example 28.3]", "IC50": "< 1000"},
      {"smiles": "CC(c1ccccc1Cl)n1c2cc(-c3cnc(N4CCN(C(=O)CO)[C@H](C)C4)nc3)ccc2c(=O)n1C", "note": "(stereo partly shown) [Example 28.4]", "IC50": "1000 to 10000"},
      {"smiles": "Cn1c(=O)c2ccc(-c3cnc(N4CCN(C=O)CC4)nc3)cc2n1Cc1cc(CO)ccc1OC(F)F", "note": "[Example 29, 4-(5-(1-(2-(Difluoromethoxy)-5-(hydroxymethyl)benzyl)-2-methyl-3-oxo-2,3-dihydro-1H-indazol-6-yl)pyrimidin-2-yl)piperazine-1-carbaldehyde]", "IC50": "< 1000"},
      {"smiles": "Cc1cnc(C(F)(F)F)c(Cn2c3cc(-c4cnc(N5CCN6C(=O)NC[C@H]6C5)nc4)ccc3c(=O)n2C)c1", "note": "[Example 29.1]", "IC50": "1000 to 10000"},
      {"smiles": "Cn1c(=O)c2ccc(-c3cnc(N4CCN5C(=O)NC[C@H]5C4)nc3)cc2n1Cc1cccnc1C(F)(F)F", "note": "[Example 29.2]", "IC50": "1000 to 10000"},
      {"smiles": "Cc1ccc(C(F)(F)F)c(Cn2c3cc(-c4cnc(N5CCN6C(=O)NC[C@H]6C5)nc4)ccc3c(=O)n2C)c1", "note": "[Example 29.3]", "IC50": "< 1000"},
      {"smiles": "Cn1c(=O)c2ccc(-c3cnc(N4CCN5C(=O)NC[C@H]5C4)nc3)cc2n1Cc1c(Cl)ccc2c1COC2", "note": "[Example 29.4]", "IC50": "< 1000"},
      {"smiles": "Cn1c(=O)c2ccc(-c3cnc(N4CCN5C(=O)NC[C@H]5C4)nc3)cc2n1Cc1cc(Cl)ccc1C(F)(F)F", "note": "[Example 29.5]", "IC50": "< 1000"},
      {"smiles": "Cc1ccc(OC(F)F)c(Cn2c3cc(-c4cnc(N5CCN6C(=O)NC[C@H]6C5)nc4)ccc3c(=O)n2C)n1", "note": "[Example 29.6]", "IC50": "1000 to 10000"}
    ]}
  ]
}
